Reference: patent US8981179B2, “Transgenic non-human animal and uses thereof” (Sanofi, priority 2009, dated 2015)

Tests used:
[1] = molecular target: T1, DP1 receptor (Mus musculus, UniProt P70263); experiment: Primary microglia CreLuc luciferase assay, DP agonist; type: cell-based; conditions: 10 μM, 4 hours
T1 construct: Primary microglia were isolated from the cortices from P2 mice; endogenous in cells; host or cells: whole splenocytes, CD4+ T cells and primary microglia (P2 cortices), CreLuc mouse line 64
T1 sequence (P70263 1-357): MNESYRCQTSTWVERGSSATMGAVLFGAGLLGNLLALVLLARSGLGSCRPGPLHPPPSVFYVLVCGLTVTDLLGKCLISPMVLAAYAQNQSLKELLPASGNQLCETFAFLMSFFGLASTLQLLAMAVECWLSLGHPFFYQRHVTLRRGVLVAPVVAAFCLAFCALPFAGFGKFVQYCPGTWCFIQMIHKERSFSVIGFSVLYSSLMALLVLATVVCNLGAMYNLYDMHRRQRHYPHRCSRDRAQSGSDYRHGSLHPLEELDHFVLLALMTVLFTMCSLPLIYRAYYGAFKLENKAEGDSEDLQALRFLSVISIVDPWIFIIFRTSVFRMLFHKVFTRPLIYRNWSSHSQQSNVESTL
Experimental: (§1) Induction of luciferase expression in microglia isolated from CreLuc mice by the general cAMP activators, forskolin and rolipram, and an agonist for the DP receptor, BW245C was examined (FIG. 22). Primary microglia were isolated from the cortices from P2 mice in media consisting of DMEM (GIBCO Cat#11995), 10% FBS (GIBCO Cat#16140) and 1% Penicillin-Streptomycin 100× (GIBCO Cat#15140). The cells were plated in 96 well format on Poly-D-Lysine-coated plates. Cells were either left untreated or stimulated for 2 hours with 100 ng/ml LPS. Compounds were then added for an additional 4 hours before the Bright Glo assay was run. The compounds used were 5 μM forskolin, 10 μM rolipram or the combination of the two, or the Gs agonist for the DP1 receptor, BW245C at 10 μM. In unstimulated conditions, microglia are unresponsive to general cAMP modulators and the specific Gs agonist for the DP receptor. However, when microglia were stimulated with LPS, the cells became responsive to forskolin and BW245C.

[2] = molecular target: T2, DP (Mus musculus, UniProt P70263); experiment: Isolated CD4+ T cells CreLuc luciferase assay, DP agonist; type: cell-based; conditions: line 64 CD4+ T cells, anti CD3 24 hours, 10 μM, 4 hours
T2 construct: Primary microglia were isolated from the cortices from P2 mice; endogenous in cells; host or cells: whole splenocytes, CD4+ T cells and primary microglia (P2 cortices), CreLuc mouse line 64
T2 sequence (P70263 1-357): T1 sequence (P70263 1-357)
Experimental: The effects of different Gs agonists on luciferase levels in anti CD3 stimulated CD4+ T cells isolated from CreLuc mice was studied (FIG. 19). Whole splenocyte populations were prepared by mechanical disruption. CD4+ cells were then isolated by MACS Magnetic Separation with Positive Selection (Miltenyi Biotec cat#130-049-201). The cells, 1.5×10^5 per well, were then plated on 96 well white opaque plates and then stimulated with anti CD3 antibodies (BD Pharmingen cat#553058). After 24 hours, compounds were added for an additional 4 hours. Gs agonists for DP (BW245C), EP2 (EX00000173A) and ADβR (isoproterenol) were all used at 10 μM. Forskolin 5 μM, and rolipram 10 μM. BrightGlo (Promega, Madison, Wis., cat#E2610) was added and the assay was read on the TopCount. A 25-fold increase is observed in cells treated with forskolin and rolipram. […] The transgene was responsive to specific Gs agonists as well as general modulators of the cAMP pathway.

[3] = molecular target: T3, prostaglandin D2 receptor 1 (DP1) (Mus musculus, UniProt P70263); experiment: Whole splenocytes CreLuc luciferase assay, DP1 agonist; type: cell-based; conditions: line 64 whole splenocytes, 10 uM, 4 hours
T3 construct: Primary microglia were isolated from the cortices from P2 mice; endogenous in cells; host or cells: whole splenocytes, CD4+ T cells and primary microglia (P2 cortices), CreLuc mouse line 64
T3 sequence (P70263 1-357): T1 sequence (P70263 1-357)
Experimental: Whole splenocyte preps isolated from CreLuc mice were used to show the effects of general cAMP inducers such as forskolin and rolipram, as well as Gs agonists on luciferase expression (FIG. 16). Spleens were harvested from the animals in 1×HBSS (Invitrogen, Carlsbad, Calif., cat#14025). The cells were then isolated by mechanically disrupting the spleen capsule using the end of a 5 ml syringe in 5 mls of D-PBS (Invitrogen, Carlsbad, Calif., cat#14190). The cell suspension was then passed through a 70 um strainer into a 50 ml conical tube. The cells were then spun down at 800 rpm, then resuspended and incubated for 6 minutes at room temperature in 5 ml of 1× Pharm Lyse solution (BD BioSciences, cat#555899). Cells were then washed by adding 28 mls of media consisting of RPMI 1640 (Invitrogen, Carlsbad, Calif., cat#11875), 10% FCS (Invitrogen, Carlsbad, Calif., cat#16000), 1% pen/strep (Invitrogen, Carlsbad, Calif., cat#15070) and 0.1% β-mercaptoethanol (Invitrogen, Carlsbad, Calif., cat#21985). Cells were diluted to 2×10^6/ml, and 100 ul of the cells were plated per well in a 96 well white opaque plate. Half of the cells were stimulated for 24 hours with anti-CD3 antibody (BD Pharmingen, cat#553058), the other half were untreated. […] After 4 hours, 100 μl of BrightGlo (Promega, Madison, Wis., cat#E2610) and the assay was read on a TopCount luminometer. […]

[4] = system: beta-cell; experiment: Effect of beta-cell toxin on induction of CRE-Luc by AVE0010; type: in vivo, mouse; conditions: line 11, STZ 200 mpk, ip, imaged four days later after AVE0010
Experimental: Male CRE-luc mice (line 11) were imaged before and after AVE0010 (0.1 mg/kg, sc) treatment. […] Then, the animals were treated with vehicle or STZ (200 mpk, ip). Four days later, they were imaged again after AVE0010 treatment.

[5] = Blood glucose in unfasted CRE-luc mice; type: in vivo, mouse; conditions: line 11, STZ 200 mpk, ip, unfasted mice
Experimental: The induction of CRE-Luc by AVE0010 is likely beta-cell-specific (FIG. 31). Animals were treated as described in FIG. 30. Blood glucose levels were measured by tail vein nicking on unfasted mice. Glucose levels were read on a Bayer glucometer. Glucose levels are shown as mg glucose/[…]. Fold induction is the luciferase bioimaging levels of AVE10 dosing versus the baseline signals. Blood glucose levels (BG) were increased by STZ (upper left panel). Non-fasting BG levels were reduced by AVE0010 (0.1 mg/kg, sc).

[6] = system: plasma cAMP; experiment: In vivo stimulation of cAMP in plasma (ELISA); set-up: species or system FVB/Tac mice; conditions: FVB/Tac females, i.p., forskolin 5 mg/kg, rolipram 10 mg/kg, 30 minutes
Experimental: FVB/Tac females were dosed with either vehicle (1% DMSO) or drugs i.p., then 30 minutes later, blood samples were collected and assayed for cAMP by ELISA (Assay Designs, Ann Arbor, Mich., cat#900-163). The drugs used are as follows: 5 mg/kg forskolin (F) (Sigma F6886), 5 mg/kg water soluble forskolin (H20F) (Calbiochem 344273), 10 mg/kg rolipram (R) (Sigma R6520) or combinations of either forskolin plus rolipram (F/R). […] Forskolin increases cAMP levels by activating adencylate cyclase while inhibitors of PDE4, such as rolipram, raise plasma cAMP by preventing hydrolysis of cAMP. A combination of rolipram and water soluble forskolin increases cAMP levels in vivo 14 fold. This combination was used to provide a large window of induction for founder screening by bioimaging, a representative study is shown in FIG. 6.
FIG. 5B is a cAMP assay on plasma levels in wild-type mice following various treatment with forskolin (F), rolipram (R) or a combination of forskolin and rolipram (F/R). […]

[7] = system: plasma cAMP; conditions: Balb/c mice, 10 mg/kg, blood harvested after 20 minutes; cited from earlier work
[8] = system: cAMP (CreLuc luciferase reporter); experiment: Primary microglia CreLuc luciferase assay, general cAMP activators; type: cell-based, mouse; conditions: line 64, unstimulated, 5 μM forskolin, 10 μM rolipram, 4 hours
Experimental: as §1

In the case of `O=C(O)CCCCCCC1C(=O)NC(=O)N1CCC(O)C1CCCCC1` (stereo not drawn) [BW245C], the “luciferase response of LPS stimulated microglia” value ([1]; line 64, 100 ng/ml LPS 2 hours) is reported as “responsive”, the “luciferase response of unstimulated microglia” value ([1]; line 64, unstimulated) is reported as “unresponsive” and the increase of luciferase [2] is reported as 3 fold. For the same compound, the “luciferase versus DMSO only control (t-test)” value [3] was “Statistically significant increases”.

For `CN(N=O)C(=O)N[C@H]1C(O)O[C@H](CO)[C@@H](O)[C@@H]1O` (mixture of isomers) [STZ, streptozotocin], the “luciferase induction by AVE0010 compared to vehicle group” value [4] was “decreased luciferase induction” and the “blood glucose levels (BG)” value [5] was “increased”.

In the case of `COc1ccc(C2CNC(=O)C2)cc1OC1CCCC1` (stereo not drawn) [rolipram], the “elevation of circulating cAMP levels vs vehicle” value [6] is given as “statistically significance in their elevation”, the “plasma cAMP levels” value [7] is given as “significantly increase” and the “luciferase response of unstimulated microglia” value [8] is given as “unresponsive”.
